The record followed here is article PMC7369637, “Inhibition of Resistance-Refractory P. falciparum Kinase PKG Delivers Prophylactic, Blood Stage, and Transmission-Blocking Antiplasmodial Activity” (Cell Chemical Biology, 2020).

In one data set the test system is Pf Dd2-B2 ABS parasites. In words: 72-h asexual blood stage (ABS) growth inhibition assay, Dd2-B2. It is filed as cell-based, Plasmodium falciparum. As to the method: Synchronicity was achieved using three rounds of sorbitol treatment on early rings, spaced 48 h apart, followed by magnetic purification of segmented schizonts following the final sorbitol treatment. Parasites were highly synchronous to within a 3 h window of development. Assays were repeated on at least three independent occasions (each with technical duplicates) and statistical significance was assessed using Mann Whitney U tests.

The subject of the next data set is Pf ABS parasites. Nature of the data set: Light microscopy of ABS development. As to conditions: ring-stage parasites exposed to 350 nM (approximately 3 × IC50). It is filed as cell-based, Plasmodium falciparum.
Data set [1] deals with T1, calcium-dependent protein kinase 1 (CDPK1) (PF3D7_0217500) (Plasmodium falciparum, UniProt P62344).
T1 construct: endogenous in cells; host or cells: P. falciparum asexual blood-stage parasites (trophozoite stage)
Nature of the data set: Competitive chemoproteomics in Pf lysates (Kinobeads / bead-immobilized compound). It is filed as binding. As to conditions: for Kd: read-out: Kdapp, CDPK1. The protocol:
(§1) Pf protein extracts were prepared as described elsewhere ([Paquet et al., 2017]). Parasite cultures at the trophozoite stage were harvested, washed twice in RPMI 1640 medium (Gibco), and lysed by the addition of saponin to a final concentration of 0.1% for 5 min at room temperature. Free parasites were sedimented by centrifugation (3500 rpm for 10 min), washed three times with phosphate-buffered saline, and stored at −80°C. Parasites were resuspended in cell lysis buffer (50 mM tris-HCl (pH 7.5), 5% glycerol, 1.5 mM MgCl2, […], 1 mM […], 25 mM sodium fluoride, 0.8% NP-40, EDTA-free protease inhibitor cocktail tablets (Roche Diagnostics), and 1 mM DTT) and disrupted by sonication (Sonics Vibra-Cell) using two 30-s cycles on ice at half-amplitude. After centrifugation (140,000g for 1 h at 4°C), soluble proteins were recovered from the supernatants, and protein concentrations of each sample were estimated using the Lowry-based DC assay (Bio-Rad). Samples were stored at −80°C until use.
(§2) Kinobeads were prepared by immobilizing Bis-(III) indolyl-maleimide, purvalanol B, staurosporine and CZC8004, and the analogs of PD173955, sunitinib and vandetanib on NHS-activated Sepharose 4 beads (Amersham) ([Bantscheff et al., 2007]). […] The chemoproteomic affinity-capturing experiments were performed as previously described ([Bantscheff et al., 2011]). Briefly, beads were washed and equilibrated in lysis buffer (50 mM Tris-HCl, pH 7.4, 0.4 % Igepal-CA630, 1.5 mM MgCl2, 5 % Glycerol, 150 mM NaCl, 25 mM NaF, 1 mM Na3VO4, 1 mM DTT, and one cOmplete EDTA-free protease inhibitor tablet (Roche) per 25 mL). The beads were incubated at 4°C for 1 h with either 0.1 ml (0.3 mg) Pf blood stage extract or 0.5 mL (2.5 mg) human cell/tissue protein extract (a mixture of HEK-293, K-562, Hep G2 , and placental cells), which was pre-incubated with compound or DMSO (vehicle control). 10 samples were measured in parallel (TMT 10-plex ([Werner et al., 2014])) to generate values for the affinity of the beads to the bound proteins (“depletion” values, 4 samples) and to generate IC50 values (6 samples) in a single experiment. Apparent dissociation constants were determined after accounting for protein depletion by the beads ([Bantscheff et al., 2011]). Beads were transferred to Filter plates (Durapore PVDF membrane, Merck Millipore), washed with lysis buffer, and eluted with SDS sample buffer.
(§3) Proteins were digested according to a modified single pot solid-phase sample preparation (SP3) protocol ([Hughes et al., 2014]). Peptides were labeled with isobaric mass tags (Thermo Fisher Scientific, Waltham, MA) using 10-plex TMT reagents, enabling relative quantification of 10 conditions in a single experiment ([Werner et al., 2014]). The labeling reactions and LC-MS/MS measurements using Q Exactive Orbitrap or Orbitrap Fusion Lumos mass spectrometers (Thermo Fisher Scientific) were performed as described elsewhere ([Sridharan et al., 2019]). Mascot 2.4 (Matrix Science, Boston, MA) was used for protein identification by using a 10 parts per million mass tolerance for peptide precursors and 20 mD (HCD) mass tolerance for fragment ions. To create the fasta file for mascot searching, all proteins corresponding to the taxonomy ‘Plasmodium falciparum (isolate 3D7)’ were downloaded from Uniprot (release 20170621) and supplemented with common contaminant protein sequences of bovine serum albumin, porcine trypsin and mouse, rat, sheep and dog keratins. To assess the false discovery rate (FDR), “decoy” proteins (reverse of all protein sequences) were created and added to the database, resulting in a database containing a total of 14266 protein sequences, with 50% forward and 50% reverse. For peptide and protein identification of human proteins see ([Sridharan et al., 2019]). […]

Data set [2] deals with putative amino acid transporter (AAT) (PF3D7_1231400) (Plasmodium falciparum, UniProt Q8I5A6). The data set is described as above. It is filed as binding. As to conditions: lysates exposed to 40 μM of the same compound vs vehicle. As to the method: as §1, §2, §3
A further data set can be described thus: in vitro. The conditions noted are these: human.

Read-outs that look alike come from different tables or passages of the source.

T1 sequence (P62344 whole entry): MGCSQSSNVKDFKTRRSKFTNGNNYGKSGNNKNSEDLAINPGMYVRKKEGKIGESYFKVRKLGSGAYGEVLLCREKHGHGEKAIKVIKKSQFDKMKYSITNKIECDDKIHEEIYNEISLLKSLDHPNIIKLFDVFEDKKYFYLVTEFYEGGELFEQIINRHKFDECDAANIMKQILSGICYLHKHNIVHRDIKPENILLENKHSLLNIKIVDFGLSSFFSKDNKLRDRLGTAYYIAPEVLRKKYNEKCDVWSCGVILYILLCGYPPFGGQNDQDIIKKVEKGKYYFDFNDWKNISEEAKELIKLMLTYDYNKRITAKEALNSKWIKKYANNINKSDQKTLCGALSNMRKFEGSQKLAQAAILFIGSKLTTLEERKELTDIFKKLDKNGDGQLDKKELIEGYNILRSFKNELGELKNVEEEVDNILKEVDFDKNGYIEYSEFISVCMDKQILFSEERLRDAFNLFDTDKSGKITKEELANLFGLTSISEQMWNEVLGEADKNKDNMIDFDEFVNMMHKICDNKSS
Sequence of putative amino acid transporter (AAT) (PF3D7_1231400) (Q8I5A6 entry or part of it): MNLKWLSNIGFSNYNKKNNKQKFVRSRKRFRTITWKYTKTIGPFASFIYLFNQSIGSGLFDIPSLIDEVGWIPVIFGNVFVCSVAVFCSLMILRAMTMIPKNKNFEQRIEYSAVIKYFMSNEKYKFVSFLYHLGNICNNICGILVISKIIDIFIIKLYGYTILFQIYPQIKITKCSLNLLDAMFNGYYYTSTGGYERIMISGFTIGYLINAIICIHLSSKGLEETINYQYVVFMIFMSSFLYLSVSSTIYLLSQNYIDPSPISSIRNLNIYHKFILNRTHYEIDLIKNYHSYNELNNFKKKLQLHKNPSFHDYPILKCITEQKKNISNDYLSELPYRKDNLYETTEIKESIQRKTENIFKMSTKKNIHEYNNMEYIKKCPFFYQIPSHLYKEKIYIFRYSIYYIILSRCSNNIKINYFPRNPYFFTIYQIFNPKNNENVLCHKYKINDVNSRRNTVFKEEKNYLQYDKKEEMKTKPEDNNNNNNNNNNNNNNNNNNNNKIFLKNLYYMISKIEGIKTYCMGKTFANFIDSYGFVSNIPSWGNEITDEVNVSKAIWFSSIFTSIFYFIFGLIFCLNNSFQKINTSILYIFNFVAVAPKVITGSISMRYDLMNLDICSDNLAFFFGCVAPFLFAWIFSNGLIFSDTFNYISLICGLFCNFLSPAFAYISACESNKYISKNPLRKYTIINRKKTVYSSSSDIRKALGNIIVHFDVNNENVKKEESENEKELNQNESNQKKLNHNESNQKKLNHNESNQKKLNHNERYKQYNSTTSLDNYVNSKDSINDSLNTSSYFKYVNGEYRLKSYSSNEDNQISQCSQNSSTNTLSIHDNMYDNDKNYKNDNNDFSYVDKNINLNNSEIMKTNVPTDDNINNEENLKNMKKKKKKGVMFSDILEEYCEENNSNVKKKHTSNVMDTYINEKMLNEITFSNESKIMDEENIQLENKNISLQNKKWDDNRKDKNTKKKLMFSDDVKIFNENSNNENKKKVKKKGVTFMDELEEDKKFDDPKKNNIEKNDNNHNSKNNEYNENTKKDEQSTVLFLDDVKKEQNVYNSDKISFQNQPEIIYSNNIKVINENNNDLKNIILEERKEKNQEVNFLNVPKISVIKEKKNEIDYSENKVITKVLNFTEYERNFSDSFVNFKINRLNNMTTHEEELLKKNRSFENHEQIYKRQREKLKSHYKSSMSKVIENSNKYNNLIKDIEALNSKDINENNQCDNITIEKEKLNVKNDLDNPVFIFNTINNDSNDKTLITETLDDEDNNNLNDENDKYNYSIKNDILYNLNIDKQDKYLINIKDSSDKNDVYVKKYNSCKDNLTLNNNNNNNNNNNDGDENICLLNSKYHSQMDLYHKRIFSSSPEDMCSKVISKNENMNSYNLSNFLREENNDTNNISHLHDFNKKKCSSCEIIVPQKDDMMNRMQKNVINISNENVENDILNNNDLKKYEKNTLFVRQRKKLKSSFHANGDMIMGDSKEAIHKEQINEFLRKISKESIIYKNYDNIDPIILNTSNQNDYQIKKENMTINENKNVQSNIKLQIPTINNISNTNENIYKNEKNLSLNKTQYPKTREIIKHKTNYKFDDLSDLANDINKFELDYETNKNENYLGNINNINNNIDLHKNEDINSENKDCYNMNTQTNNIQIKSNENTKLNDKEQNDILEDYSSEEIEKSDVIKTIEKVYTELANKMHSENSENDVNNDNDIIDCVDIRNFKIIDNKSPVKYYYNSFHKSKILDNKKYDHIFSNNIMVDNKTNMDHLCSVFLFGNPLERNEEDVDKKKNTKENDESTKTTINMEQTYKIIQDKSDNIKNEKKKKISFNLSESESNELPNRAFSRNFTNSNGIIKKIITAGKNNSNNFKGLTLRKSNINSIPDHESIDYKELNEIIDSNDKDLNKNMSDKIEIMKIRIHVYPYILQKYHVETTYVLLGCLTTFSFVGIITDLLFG

With `CC(C)(CN)c1nc(-c2ccc(Cl)c(O)c2)c(-c2ccncc2)[nH]1` [MMV030084], the IC50 in the data set on Pf Dd2-B2 ABS parasites (Plasmodium falciparum, DD2, 72 h, read-out: Mean IC50, 72 h ABS activity, Dd2-B2 wild-type, 72 h) was 120 nM; in the data set on Pf Dd2-B2 ABS parasites (read-out: Mean IC50, 72 h ABS activity, Dd2-B2 wild-type, 72 h) it was 120 nM. Also, in the data set with Pf ABS parasites, the “ABS development by light microscopy” value was “halted at the schizont stage”. Moreover, the Kd in data set [1] ('084-beads (bead-immobilized MMV030084)) was 220 nM; in data set [1] (Kinobeads), 215 nM; in data set [1] (five independent experiments, lowest tested concentration 0.1 μM), less than 100 nM; in data set [1] (two follow-up experiments with lower concentrations), 215 to 220 nM. The “CDPK1 pull-down by bead-bound compound” value in data set [1] (lysates exposed to 40 μM of the same compound vs vehicle) is “pulled down”. In data set [2], the “AAT pull-down by bead-bound compound” value is “pulled down”. In addition, the CC50 in “in vitro” is 41500 nM.

Usually IC50 stands for the midpoint of a concentration-inhibition curve.
